Laboratory results reported in patent US3980794A, “Method for promoting growth of poultry with 3-(5-nitro-2-imidazolyl)pyrazoles” (Eli Lilly and Company, priority 1975, dated 1976).
Converted amounts (≈) assume the structure as drawn. Like-named read-outs stand apart in the source and are kept apart here.

Tests used:
Salmonella typhimurium = assay: Control of infections caused by Salmonella typhimurium in chickens, subcutaneous (Experiment 2); type: in vivo; conditions: Salmonella enterica, sc, 144 h, 6 days, read-out: Survival Ratio (converted)
Method: The efficacy of the novel compounds in the control of infections caused by Salmonella typhimurium in chickens was evaluated in the following manner.
The test was carried out using day-old chicks weighing approximately 35 g. each. The chicks were divided into groups of 5 chicks per each dosage level. A portion of the chicks received the test compound which was suspended in 0.2 ml. of polyethylene glycol 200 and administered subcutanusly in the neck. […] All the chicks were challenged with a 1:200 dilution of a culture of the organism, 0.1 ml. of the dilution being injected into each chick in the leg intramuscularly. […] The test compounds are identified in the same manner as set forth in Experiment 1.
In the chart, column 1 lists the compounds tested; column 2, the dosage of test compound in mg./kg.; and column 3, the survival ratio.

[1] = system: Bacteroides fragilis sp. thetaiotaomicron 1438; assay: Susceptibility of anaerobic bacteria, agar dilution; type: cell-based; conditions: 24 h, read-out: 24 Hr. Minimum Inhibitory Concentration
[2] = system: Bacteroides fragilis sp. fragilis 1877; assay: as above; type: cell-based; conditions: 24 h, read-out: 24 Hr. Minimum Inhibitory Concentration
[3] = system: Eubacterium aerofaciens 1235; assay: as above; type: cell-based; conditions: read-out: 24 Hr. Minimum Inhibitory Concentration
[4] = system: Peptostreptococcus intermedius 1264; assay: as above; type: cell-based; conditions: 24 h; Peptostreptococcus intermedius 1264; read-out: 24 Hr. Minimum Inhibitory Concentration
Clostridium ramosum 1313 = assay: as above; type: cell-based; conditions: read-out: 24 Hr. Minimum Inhibitory Concentration
[5] = system: Clostridium innocuum 1373; assay: as above; type: cell-based; conditions: read-out: 24 Hr. Minimum Inhibitory Concentration
[6] = system: Bacteroides fragilis sp. vulgatus 1563; assay: as above; type: cell-based; conditions: 24 h, read-out: 24 Hr. Minimum Inhibitory Concentration
Actinomyces bovis 13684 = assay: as above; type: cell-based; conditions: read-out: 24 Hr. Minimum Inhibitory Concentration
[7] = system: Bacteroides fragilis sp. vulgatus 1211; assay: as above; type: cell-based; conditions: 24 h, read-out: 24 Hr. Minimum Inhibitory Concentration
[8] = system: Fusobacterium symbiosum 1470; assay: as above; type: cell-based; conditions: read-out: 24 Hr. Minimum Inhibitory Concentration
[9] = system: Clostridium septicum 1128; assay: as above; type: cell-based; conditions: 24 h, read-out: 24 Hr. Minimum Inhibitory Concentration
Method: (§1) The susceptibility of anaerobic bacteria, both gram positive and gram negative, to a representative number of the novel compounds of this application was determined using the agar dilution method. The bacteria used were isolated from patients hospitalized at the Indiana University Medical Center. The isolates were identified in the anaerobe laboratory of the Medical Center by the criteria established by Dowell et al., Laboratory Methods in Anaerobic Bacteriology. Public Health Serv. Publ. No. 1803 (1968) [Center for Disease Control, Atlanta, Ga.]; and by Smith et al., The Pathogenic Anaerobic Bacteria, pages 96-136 (1968) [Charles C. Thomas, Publisher, Springfield, Ill.]. All the organisms were maintained in chopped meat glucose medium (Scott Labs) at room temperature.
(§2) The method used for the agar dilution tests was based on the studies of Sutter et al., Antimicrob. Ag. Chemother. 3, 188-193 (1973). The strains of anaerobic bacteria were grown in 16 × 120 mm. tubes for 16 to 18 hours in Thioglycolate medium without indicator--135C (Becton, Dickinson and Co.), to which was added 5 mcg. of hemin per milliliter prior to autoclaving, plus 1 mg. of sodium bicarbonate and 0.1 mcg. of filter-sterilized menadione per milliliter after autoclaving. The growth tubes for the bacteria Veillonella alcalescens were additionally supplemented with 5 mg. of sodium lactate per milliliter. The strains were adjusted to the turbidity of the No. 1 McFarland standard in Thioglycolate medium without indicator--135C containing an additional 0.13 percent Bacto-agar (Difco). Each strain was then applied to the surface of the petri plate (100 mm. × 15 mm.) by means of a replicator.
(§3) For the agar dilution studies, two-fold dilutions of the test compounds were prepared in deionized water to which was then added laked sheep blood and filter-sterilized menadione so the concentrations after the agar dilution were 5 percent and 10 mcg./ml. respectively. An equal volume of double strength Brucella agar (Becton, Dickinson and Co.) was mixed with each dilution in a water bath held at 50°C. and then poured onto the petri plates.
(§4) All of the procedures were done inside a plastic glove box, except for the incubation of the growth tubes and the pouring of the plates. After the plates hardened, they were put inside the glove box for a minimum of two hours before they were inoculated. Generally, the glove box procedures of Aranki et al., Applied Microbiology 17, 568-576 (1969), were followed, but the following modifications were used. Dry materials were introduced into the glove box by evacuating the lock to 28 inches of mercury and filling once with nitrogen gas, followed by evacuating in the same manner and filling with an 80 percent nitrogen plus 10 percent CO2 plus 10 percent hydrogen gas mixture. Liquid media and agar plates were introduced into the glove box by evacuating the lock to 10 inches of mercury and filling with gas four times. The nitrogen gas was used to fill the lock for the first two cycles of evacuation, with the gas mixture described above used for the final two fillings.
(§5) All the plates were incubated at 37°C. in Gas Pak jars (Becton, Dickinson and Co.) containing palladium-coated alumina catalysts (reactivated after each use). The results of the agar dilution tests were read after about 24 hours of incubation. The minimum inhibitory concentration (MIC) was recorded as the lowest concentration of test compound at which there was no growth.
(§6) The results of these in vitro tests are recorded in Charts 11 and 12 which follow. The test compounds are identified in the same manner as in the previous experiments. The antibiotics cephalothin and erythromycin were also run simultaneously with the novel compounds of this application, for comparison purposes, and the results are included in Charts 11 and 12 below.

[10] = system: Clostridium septicum bovine; assay: as above; type: cell-based; conditions: 24 h, read-out: 24 Hr. Minimum Inhibitory Concentration
Method: as §1, §2, §3, §4, §5, §6

[11] = system: Peptococcus anaerobius 1428; assay: as above; type: cell-based; conditions: 24 h, read-out: 24 Hr. Minimum Inhibitory Concentration
[12] = system: Bacteroides fragilis sp. fragilis 1936B; assay: as above; type: cell-based; conditions: 24 h, read-out: 24 Hr. Minimum Inhibitory Concentration
[13] = system: Veillonella alcalescens 1; assay: as above; type: cell-based; conditions: read-out: 24 Hr. Minimum Inhibitory Concentration
[14] = system: Fusobacterium necrophorum 13859; assay: as above; type: cell-based; conditions: read-out: 24 Hr. Minimum Inhibitory Concentration
[15] = system: Propionibacterium acnes 79; assay: as above; type: cell-based; conditions: read-out: 24 Hr. Minimum Inhibitory Concentration
[16] = system: Propionibacterium acnes 44; assay: as above; type: cell-based; conditions: Cutibacterium acnes, 24 h; Propionibacterium acnes 44; read-out: 24 Hr. Minimum Inhibitory Concentration
[17] = system: Clostridium perfringens 81; assay: microbe, parasite or virus in culture; type: cell-based; conditions: Clostridium perfringens, 81, 24 h, read-out: 24 Hr. Minimum Inhibitory Concentration
[18] = Collinsella aerofaciens, 1235, 24 h
[19] = Thomasclavelia ramosa, 1313, 24 h
[20] = [Clostridium] innocuum, 1373, 24 h
[21] = Fusobacterium necrophorum, 13859, 24 h
[22] = Bacteroides fragilis sp. thetaiotaomicron 1438
[23] = Bacteroides fragilis sp. fragilis 1877
[24] = Collinsella aerofaciens, 24 h, Eubacterium aerofaciens 1235
[25] = Thomasclavelia ramosa, 24 h, Clostridium ramosum 1313
[26] = 24 h, Clostridium innocuum 1373
[27] = Bacteroides fragilis sp. vulgatus 1563
[28] = Bacteroides fragilis sp. vulgatus 1211
[29] = 24 h, Fusobacterium symbiosum 1470
[30] = Bacteroides fragilis sp. fragilis 1936B
[31] = Veillonella parvula, 24 h, Veillonella alcalescens 1
[32] = 24 h, Fusobacterium necrophorum 13859
[33] = Cutibacterium acnes, 24 h, Propionibacterium acnes 79

Row | Structure (SMILES) | MIC ([1]; Bacteroides fragilis) [µg/mL] | MIC ([2]; Bacteroides fragilis) [µg/mL] | MIC [3, 18] [µg/mL] | MIC [4] [µg/mL] | MIC (Clostridium ramosum 1313; [19]) [µg/mL] | MIC [5, 20] [µg/mL] | MIC ([6]; Bacteroides fragilis) [µg/mL] | MIC (Actinomyces bovis 13684; Actinomyces bovis, 13684, 24 h) [µg/mL] | MIC ([7]; Bacteroides fragilis) [µg/mL] | MIC ([8]; Fusobacterium, 1470, 24 h) [µg/mL] | MIC [9] [µg/mL] | MIC [10] [µg/mL] | MIC [11] [µg/mL] | MIC ([12]; Bacteroides fragilis) [µg/mL] | MIC ([13]; Veillonella parvula, 1, 24 h) [µg/mL] | MIC [14, 21] [µg/mL] | MIC ([15]; Cutibacterium acnes, 79, 24 h) [µg/mL] | MIC [16] [µg/mL] | MIC [17] [µg/mL] | MIC [1, 22] [µg/mL] | further results
1 | CC=CC=Nc1c(C#N)c(-c2ncc([N+](=O)[O-])n2C)nn1C [Compound 18, 5-(2-butenylideneamino)-1-methyl-3-(1-methyl-5-nitro-2-imidazolyl)pyrazole-4-carbonitrile] | < 0.125 | < 0.125 | < 0.125 | 0.25 (≈ 0.835 µM) | < 0.125 | < 0.125 | < 0.125 | < 0.125 | < 0.125 | < 0.125 | < 0.125 | < 0.125 | < 0.125 | < 0.125 | < 0.125 | < 0.125 | < 0.125 | > 32 | < 0.125 | – | responders at 7.5 mg/kg (Salmonella typhimurium; 7.5 mg./kg. subcutaneous): 0%; responders at 15 mg/kg (Salmonella typhimurium; 15 mg./kg. subcutaneous): 53.3%; responders at 30 mg/kg (Salmonella typhimurium; 30 mg./kg. subcutaneous): 66.7%; responders at 60 mg/kg (Salmonella typhimurium; 60 mg./kg. subcutaneous): 66.7%
2 | Cn1nc(-c2ncc([N+](=O)[O-])n2C)c(C(=O)O)c1N [Compound 10A, 5-amino-1-methyl-3-(1-methyl-5-nitro-2-imidazolyl)pyrazole-4-carboxylic acid] | – | – | – | 16 (≈ 60.1 µM) | – | – | – | – | – | – | 1 (≈ 3.76 µM) | 1 (≈ 3.76 µM) | – | – | – | – | – | > 32 | 0.5 (≈ 1.88 µM) | 0.25 (≈ 0.939 µM) | MIC [2, 23]: 0.5 µg/mL (≈ 1.88 µM); MIC [3, 24]: < 0.5 µg/mL; MIC (Clostridium ramosum 1313; [25]): 4 µg/mL (≈ 15 µM); MIC [5, 26]: 0.5 µg/mL (≈ 1.88 µM); MIC [6, 27]: 0.25 µg/mL (≈ 0.939 µM); MIC (Actinomyces bovis 13684; 24 h, Actinomyces bovis 13684): 4 µg/mL (≈ 15 µM); MIC [7, 28]: 0.25 µg/mL (≈ 0.939 µM); MIC [8, 29]: < 0.125 µg/mL; MIC ([11]; Peptococcus anaerobius 1428): 8 µg/mL (≈ 30.1 µM); MIC [12, 30]: 8 µg/mL (≈ 30.1 µM); MIC [13, 31]: < 0.125 µg/mL; MIC [14, 32]: < 0.125 µg/mL; MIC [15, 33]: 0.5 µg/mL (≈ 1.88 µM)
3 | CN(C)S(=O)(=O)Nc1c(C#N)c(-c2ncc([N+](=O)[O-])n2C)nn1C [Compound 20] | – | – | – | 32 (≈ 90.3 µM) | – | – | – | – | – | – | 8 (≈ 22.6 µM) | 8 (≈ 22.6 µM) | – | – | – | – | – | > 32 | 8 (≈ 22.6 µM) | 4 (≈ 11.3 µM) | MIC [2, 23]: 4 µg/mL (≈ 11.3 µM); MIC [3, 24]: 8 µg/mL (≈ 22.6 µM); MIC (Clostridium ramosum 1313; [25]): 4 µg/mL (≈ 11.3 µM); MIC [5, 26]: 16 µg/mL (≈ 45.2 µM); MIC [6, 27]: 1 µg/mL (≈ 2.82 µM); MIC (Actinomyces bovis 13684; 24 h, Actinomyces bovis 13684): 2 µg/mL (≈ 5.64 µM); MIC [7, 28]: 2 µg/mL (≈ 5.64 µM); MIC [8, 29]: 4 µg/mL (≈ 11.3 µM); MIC ([11]; Peptococcus anaerobius 1428): 1 µg/mL (≈ 2.82 µM); MIC [12, 30]: 2 µg/mL (≈ 5.64 µM); MIC [13, 31]: 1 µg/mL (≈ 2.82 µM); MIC [14, 32]: 1 µg/mL (≈ 2.82 µM); MIC [15, 33]: 1 µg/mL (≈ 2.82 µM)
4 | CCOC=Nc1c(C#N)c(-c2ncc([N+](=O)[O-])n2C)nn1C [Compound 4, Ethyl N-[4-cyano-1-methyl-3-(1-methyl-5-nitro-2-imidazolyl)-pyrazol-5-yl]formimidate] | < 0.125 | < 0.125 | < 0.125 | 16 (≈ 52.8 µM) | < 0.125 | < 0.125 | < 0.125 | < 0.125 | < 0.125 | < 0.125 | < 0.125 | < 0.125 | < 0.125 | < 0.125 | < 0.125 | < 0.125 | < 0.125 | > 32 | < 0.125 | – | –
